US20090226527A1, “Particulate-stabilized injectable pharmacutical compositions of posaconazole” (priority 2004, published 2009)
Values after ≈ are worked out from the molar mass of the structure shown.

System: infectious agents (strains tested)
Assay: organism not typed
Format: cell-based

C[C@@H]1[C@H](O)[C@@H](C)/C=C/C=C/C=C/C=C/C=C/C=C/C=C/[C@H](O[C@@H]2O[C@H](C)[C@@H](O)[C@H](N)[C@@H]2O)C[C@@H]2O[C@](O)(C[C@@H](O)C[C@@H](O)[C@H](O)CC[C@@H](O)C[C@@H](O)CC(=O)O[C@H]1C)C[C@H](O)[C@H]2C(=O)O [Amphotericin]
MIC (Absidia spp, read-out: Geometric Mean MIC): 0.545 µg/mL (≈ 0.59 µM)
MIC (Absidia spp, read-out: MIC[90]): 0.25 to 2 µg/mL (≈ 0.271 to 2.16 µM)
MIC (Alternaria spp, read-out: Geometric Mean MIC): 0.852 µg/mL (≈ 0.922 µM)
MIC (Alternaria spp, read-out: MIC[90]): 4 µg/mL (≈ 4.33 µM)
MIC (Apophysomyces spp, read-out: Geometric Mean MIC): 0.5 µg/mL (≈ 0.541 µM)
MIC (Apophysomyces spp, read-out: MIC[90]): 0.031 to 4 µg/mL (≈ 0.0335 to 4.33 µM)
MIC (Aspergillus flavus, read-out: Geometric Mean MIC): 0.91 µg/mL (≈ 0.985 µM)
MIC (Aspergillus flavus, read-out: MIC[90]): 2 µg/mL (≈ 2.16 µM)
MIC (Aspergillus fumigatus, read-out: Geometric Mean MIC): 0.683 µg/mL (≈ 0.739 µM)
MIC (Aspergillus fumigatus, read-out: MIC[90]): 1 µg/mL (≈ 1.08 µM)
MIC (Aspergillus nidulans, read-out: Geometric Mean MIC): 0.758 µg/mL (≈ 0.82 µM)
MIC (Aspergillus nidulans, read-out: MIC[90]): 2 µg/mL (≈ 2.16 µM)
MIC (Aspergillus niger, read-out: Geometric Mean MIC): 0.36 µg/mL (≈ 0.39 µM)
MIC (Aspergillus niger, read-out: MIC[90]): 1 µg/mL (≈ 1.08 µM)
MIC (Aspergillus sydowii, read-out: Geometric Mean MIC): 1.26 µg/mL (≈ 1.36 µM)
MIC (Aspergillus sydowii, read-out: MIC[90]): 1 to 2 µg/mL (≈ 1.08 to 2.16 µM)
MIC (Aspergillus terreus, read-out: Geometric Mean MIC): 1.76 µg/mL (≈ 1.9 µM)
MIC (Aspergillus terreus, read-out: MIC[90]): 4 µg/mL (≈ 4.33 µM)
MIC (Aspergillus ustus, read-out: Geometric Mean MIC): 0.673 µg/mL (≈ 0.728 µM)
MIC (Aspergillus ustus, read-out: MIC[90]): 0.25 to 1 µg/mL (≈ 0.271 to 1.08 µM)
MIC (Bipolaris spp, read-out: Geometric Mean MIC): 0.25 µg/mL (≈ 0.271 µM)
MIC (Bipolaris spp, read-out: MIC[90]): 0.25 µg/mL (≈ 0.271 µM)
MIC (Bjerkandera adusta, read-out: Geometric Mean MIC): 0.215 µg/mL (≈ 0.233 µM)
MIC (Bjerkandera adusta, read-out: MIC[90]): 0.25 µg/mL (≈ 0.271 µM)
MIC (Blastomyces dermatitidis, read-out: Geometric Mean MIC): 0.153 µg/mL (≈ 0.166 µM)
MIC (Blastomyces dermatitidis, read-out: MIC[90]): 0.5 µg/mL (≈ 0.541 µM)
MIC (Candida albicans, read-out: Geometric Mean MIC): 0.686 µg/mL (≈ 0.742 µM)
MIC (Candida albicans, read-out: MIC[90]): 1 µg/mL (≈ 1.08 µM)
MIC (Candida dubliniensis, read-out: Geometric Mean MIC): 0.513 µg/mL (≈ 0.555 µM)
MIC (Candida dubliniensis, read-out: MIC[90]): 1 µg/mL (≈ 1.08 µM)
MIC (Candida tropicalis, read-out: Geometric Mean MIC): 0.774 µg/mL (≈ 0.838 µM)
MIC (Candida tropicalis, read-out: MIC[90]): 1 µg/mL (≈ 1.08 µM)
MIC (Clavispora lusitaniae, Candida lusitaniae, read-out: Geometric Mean MIC): 0.506 µg/mL (≈ 0.548 µM)
MIC (Clavispora lusitaniae, Candida lusitaniae, read-out: MIC[90]): 1 µg/mL (≈ 1.08 µM)
MIC (Coccidioides immitis, read-out: Geometric Mean MIC, Coccidioides immitis): 0.39 µg/mL (≈ 0.422 µM)
MIC (Coccidioides immitis, read-out: MIC[90], Coccidioides immitis): 0.5 µg/mL (≈ 0.541 µM)
MIC (Cryptococcus neoformans, read-out: Geometric Mean MIC): 0.667 µg/mL (≈ 0.722 µM)
MIC (Cryptococcus neoformans, read-out: MIC[90]): 1 µg/mL (≈ 1.08 µM)
MIC (Curvularia spp, read-out: Geometric Mean MIC): 0.5 µg/mL (≈ 0.541 µM)
MIC (Curvularia spp, read-out: MIC[90]): 0.5 µg/mL (≈ 0.541 µM)
MIC (Debaryomyces hansenii, Candida famata, read-out: Geometric Mean MIC): 0.841 µg/mL (≈ 0.91 µM)
MIC (Debaryomyces hansenii, Candida famata, read-out: MIC[90]): 2 µg/mL (≈ 2.16 µM)
MIC (Diutina rugosa, Candida rugosa, read-out: Geometric Mean MIC): 0.665 µg/mL (≈ 0.72 µM)
MIC (Diutina rugosa, Candida rugosa, read-out: MIC[90]): 1 µg/mL (≈ 1.08 µM)
MIC (Dujonia zeylanoides, Candida zeylanoides, read-out: Geometric Mean MIC): 1 µg/mL (≈ 1.08 µM)
MIC (Dujonia zeylanoides, Candida zeylanoides, read-out: MIC[90]): 1 µg/mL (≈ 1.08 µM)
MIC (Exophiala dermatidis, read-out: Geometric Mean MIC): 0.5 µg/mL (≈ 0.541 µM)
MIC (Exophiala dermatidis, read-out: MIC[90]): 0.5 µg/mL (≈ 0.541 µM)
MIC (Exophiala dermatitidis, Wangiella dermatitidis, read-out: Geometric Mean MIC): 0.63 µg/mL (≈ 0.682 µM)
MIC (Exophiala dermatitidis, Wangiella dermatitidis, read-out: MIC[90]): 0.25 to 1 µg/mL (≈ 0.271 to 1.08 µM)
MIC (Exophiala jeanselmei, read-out: Geometric Mean MIC): 0.66 µg/mL (≈ 0.714 µM)
MIC (Exophiala jeanselmei, read-out: MIC[90]): 1 µg/mL (≈ 1.08 µM)
MIC (Exophiala moniliae, read-out: Geometric Mean MIC): 0.177 µg/mL (≈ 0.192 µM)
MIC (Exophiala moniliae, read-out: MIC[90]): 0.125 to 0.25 µg/mL (≈ 0.135 to 0.271 µM)
MIC (Fonsecae pedrosoi, read-out: Geometric Mean MIC): 1 µg/mL (≈ 1.08 µM)
MIC (Fonsecae pedrosoi, read-out: MIC[90]): 1 µg/mL (≈ 1.08 µM)
MIC (Fusarium spp, read-out: Geometric Mean MIC): 1.2 µg/mL (≈ 1.3 µM)
MIC (Fusarium spp, read-out: MIC[90]): 2 µg/mL (≈ 2.16 µM)
MIC (Hansenula anomala, Pichia anomala, read-out: Geometric Mean MIC): 0.707 µg/mL (≈ 0.765 µM)
MIC (Hansenula anomala, Pichia anomala, read-out: MIC[90]): 1 µg/mL (≈ 1.08 µM)
MIC (Histoplasma capsulatum, read-out: Geometric Mean MIC, Histoplasma capsulatum): 0.25 µg/mL (≈ 0.271 µM)
MIC (Histoplasma capsulatum, read-out: MIC[90], Histoplasma capsulatum): 0.5 µg/mL (≈ 0.541 µM)
MIC (Kluyveromyces marxianus, Candida kefyr, read-out: Geometric Mean MIC): 0.779 µg/mL (≈ 0.843 µM)
MIC (Kluyveromyces marxianus, Candida kefyr, read-out: MIC[90]): 1 µg/mL (≈ 1.08 µM)
MIC (Kluyveromyces marxianus, read-out: Geometric Mean MIC): 1 µg/mL (≈ 1.08 µM)
MIC (Kluyveromyces marxianus, read-out: MIC[90]): 1 µg/mL (≈ 1.08 µM)
MIC (Lodderomyces parapsilosis, Candida parapsilosis, read-out: Geometric Mean MIC): 0.761 µg/mL (≈ 0.824 µM)
MIC (Lodderomyces parapsilosis, Candida parapsilosis, read-out: MIC[90]): 1 µg/mL (≈ 1.08 µM)
MIC (Meyerozyma guilliermondii, Candida guilliermondii, read-out: Geometric Mean MIC): 0.553 µg/mL (≈ 0.598 µM)
MIC (Meyerozyma guilliermondii, Candida guilliermondii, read-out: MIC[90]): 1 µg/mL (≈ 1.08 µM)
MIC (Mucor spp, read-out: Geometric Mean MIC): 0.274 µg/mL (≈ 0.297 µM)
MIC (Mucor spp, read-out: MIC[90]): 1 µg/mL (≈ 1.08 µM)
MIC (Nakaseomyces glabratus, Candida glabrata, read-out: Geometric Mean MIC): 0.798 µg/mL (≈ 0.864 µM)
MIC (Nakaseomyces glabratus, Candida glabrata, read-out: MIC[90]): 1 µg/mL (≈ 1.08 µM)
MIC (Paecilomyces spp, read-out: Geometric Mean MIC): 1.1 µg/mL (≈ 1.19 µM)
MIC (Paecilomyces spp, read-out: MIC[90]): 16 µg/mL (≈ 17.3 µM)
MIC (Papiliotrema laurentii, Cryptococcus laurentii, read-out: Geometric Mean MIC): 0.794 µg/mL (≈ 0.859 µM)
MIC (Papiliotrema laurentii, Cryptococcus laurentii, read-out: MIC[90]): 0.5 to 1 µg/mL (≈ 0.541 to 1.08 µM)
MIC (Paracoccidioides brasiliensis, read-out: Geometric Mean MIC, Paracoccidioides brasiliensis): 0.096 µg/mL (≈ 0.104 µM)
MIC (Paracoccidioides brasiliensis, read-out: MIC[90], Paracoccidioides brasiliensis): 0.25 µg/mL (≈ 0.271 µM)
MIC (Penicillium spp, read-out: Geometric Mean MIC): 1.02 µg/mL (≈ 1.11 µM)
MIC (Penicillium spp, read-out: MIC[90]): 4 µg/mL (≈ 4.33 µM)
MIC (Pichia etchel, read-out: Geometric Mean MIC): 0.063 µg/mL (≈ 0.0682 µM)
MIC (Pichia etchel, read-out: MIC[90]): 0.063 µg/mL (≈ 0.0682 µM)
MIC (Pichia kudriavzevii, Candida krusei, read-out: Geometric Mean MIC): 0.976 µg/mL (≈ 1.06 µM)
MIC (Pichia kudriavzevii, Candida krusei, read-out: MIC[90]): 2 µg/mL (≈ 2.16 µM)
MIC (Pleurothecium obovoideum, Ramichloridium obovoideum, read-out: Geometric Mean MIC): 1 µg/mL (≈ 1.08 µM)
MIC (Pleurothecium obovoideum, Ramichloridium obovoideum, read-out: MIC[90]): 1 µg/mL (≈ 1.08 µM)
MIC (Rhizomucor spp, read-out: Geometric Mean MIC): 0.063 µg/mL (≈ 0.0682 µM)
MIC (Rhizomucor spp, read-out: MIC[90]): 0.063 µg/mL (≈ 0.0682 µM)
MIC (Rhizopus spp, read-out: Geometric Mean MIC): 0.635 µg/mL (≈ 0.687 µM)
MIC (Rhizopus spp, read-out: MIC[90]): 2 µg/mL (≈ 2.16 µM)
MIC (Saccharomyces cerevisiae, read-out: Geometric Mean MIC): 0.775 µg/mL (≈ 0.839 µM)
MIC (Saccharomyces cerevisiae, read-out: MIC[90]): 1 µg/mL (≈ 1.08 µM)
MIC (Scedosporium apiospermum, read-out: Geometric Mean MIC): 2.27 µg/mL (≈ 2.46 µM)
MIC (Scedosporium apiospermum, read-out: MIC[90]): 8 µg/mL (≈ 8.66 µM)
MIC (Scedosporium boydii, Pseudallescheria boydii, read-out: Geometric Mean MIC): 1.72 µg/mL (≈ 1.86 µM)
MIC (Scedosporium boydii, Pseudallescheria boydii, read-out: MIC[90]): 4 µg/mL (≈ 4.33 µM)
MIC (Sporothrix schenckii, read-out: Geometric Mean MIC): 0.574 µg/mL (≈ 0.621 µM)
MIC (Sporothrix schenckii, read-out: MIC[90]): 1 µg/mL (≈ 1.08 µM)
MIC (Trichophyton mentagrophytes, read-out: Geometric Mean MIC): 1 µg/mL (≈ 1.08 µM)
MIC (Trichophyton mentagrophytes, read-out: MIC[90]): 1 µg/mL (≈ 1.08 µM)
MIC (Trichophyton tonsurans, read-out: Geometric Mean MIC): 1.26 µg/mL (≈ 1.36 µM)
MIC (Trichophyton tonsurans, read-out: MIC[90]): 0.5 to 8 µg/mL (≈ 0.541 to 8.66 µM)
MIC (Trichosporon spp, read-out: Geometric Mean MIC): 1.32 µg/mL (≈ 1.43 µM)
MIC (Trichosporon spp, read-out: MIC[90]): 1 to 2 µg/mL (≈ 1.08 to 2.16 µM)
MIC (Yarrowia lipolytica, read-out: Geometric Mean MIC): 0.5 µg/mL (≈ 0.541 µM)
MIC (Yarrowia lipolytica, read-out: MIC[90]): 0.5 µg/mL (≈ 0.541 µM)
